Results published in patent publication US10280174B2, “Salt of fused pyrimidine compound and crystal thereof” (TAIHO PHARMACEUTICAL CO., LTD., priority 2015, dated 2019).

Legend:
[1] = Blood concentration measurement test after oral administration; settings: mice
Description: These administration solutions were orally administered to mice (Balb/cA) which had been bred under a feeding condition, at a dose of 10 mL per 1 kg body weight, with a sonde for oral administration. After the administration, the mice were returned to a cage for mice and conditions were checked. Inside the cage was provided with a condition where water and food were accessible ad libitum. After 0.25, 0.5, 1, 2, 4 and 6 hours from the administration, the mice were anesthetized with isoflurane, and 60 μL of blood was collected from orbital sinus with a capillary blood collection tube.
The collected blood was ice cooled, and blood plasma was separated by a centrifugal operation. The mice after the blood collection was returned to an animal breeding cage, and conditions after recovery from the anesthesia were checked. When the last blood collection was finished, the mice were euthanized by cervical dislocation, after a level check of isoflurane anesthesia.
AUC0-6 hr, Cmax and Tmax were calculated by linear-log trapezoid method with Phoenix WinNonlin (v6.3.0) which is a software manufactured by Pharsight Corporation, from a concentration of Compound A in each blood plasma measured by MRM method with LC-MS/MS.

[2] = test system: recombinant human EGFR protein / BTK; experiment: BTK inhibition selectivity compared with EGFR kinase inhibitory activity (in vitro); type: biochemical
Description: 1) Measurement of BTK Inhibitory Activity
2) Measurement of EGFR Inhibitory Activity
Therefore, a biotinated peptide (biotin-[…]) was produced by referring to the amino acid sequence of the peptide. The purified recombinant human EGFR protein used in the test was purchased from Carna Biosciences, Inc.
The reaction was terminated by adding EDTA thereto so as to obtain a final concentration of 24 mM. Subsequently, a detection liquid containing Eu-labeled anti-phosphotyrosine antibody PT66 (PerkinElmer, Inc.) and […] APC-SA (PerkinElmer, Inc.) was added thereto, and the system was left to stand for 2 hours or longer at room temperature. […] 3) BTK Inhibition Selectivity

A431 cells / TMD8 cells = experiment: Proliferation inhibitory activity against cell lines expressing BTK and EGFR, and selectivity; type: cell-based, human
Description: TMD8 cells, which are of a diffuse large B-cell lymphoma cell line expressing BTK, were suspended in RPMI1640 medium (manufactured by Life Technologies Corp.) containing 10% fetal bovine serum. A431 cells, which are of an EGFR-overexpressing, highly activated human epidermoid carcinoma cell line, were suspended in DMEM, high glucose medium (manufactured by Life Technologies Corp.) containing 10% fetal bovine serum. The cell suspensions were inoculated into each well of 384-well flat-bottomed microplates, and the cells were cultured for 1 day at 37° C. in an incubator containing 5% carbon dioxide gas. […] A DMSO solution of the test compounds was diluted with the medium used in the suspension of the each cell, and this was added to each of the wells of the cell culture plates such that the final concentration of DMSO would be 0.2%. The cells were further cultured for 3 days at 37° C. in an incubator containing 5% carbon dioxide gas. […] Proliferation inhibition ratio (%)=(C−T)/(C−C0)×100
C0: Luminescence intensity of a well measured before the addition of the test compound

[3] = Solid stability test (acceleration test), 40° C./75% RH; type: physicochemical; settings: for total mass of analogous substance: 4 weeks
Description: Solid stability was measured under the following conditions, with respect to monofumarate of Compound A, hemifumarate of Compound A, hemitartrate of Compound A and monophosphate of Compound A which were obtained in the Examples and the Reference Examples, when they were stored for 2 weeks or 4 weeks at 40° C./75% RH (sealed condition and opened condition).
Storage condition: 40° C./75% RH (Sealed and Opened) (Opened refers to a condition where a glass container has the lid removed, and is covered with a KimWipe).
Points of measurement: 2 weeks and 4 weeks
(§1) Storage amount: About 30 mg
(§2) Storage container: Brown glass container
(§3) Method of preparing sample solution: Sample was dissolved in 50% acetonitrile such that a concentration of the sample would be 0.4 mg/mL.
Mass of analogous substance in the sample solution was measured by HPLC analysis. Handling of the devices including data processing was based on the method and the process indicated in each device. (Device: Shimadzu Corporation SIL-HTc/LC-20AB)
Column: InertSustein C18, 4.6×150 mm, 3 μm, manufactured by GL Sciences Inc.
MS detection: ESI positive
Column temperature: 40° C.
Column flow rate: 1.0 mL/min
Mobile phase: A; 10 mmol/L phosphate buffer (pH 6.0): Acetonitrile mixed solution (17:3), B; Acetonitrile
Amount of injection: 5 μL
In the Table, A, B and C refer to percentages of the total mass of analogous substance of less than 0.1%, 0.1% or more and less than 0.5%, and 0.5% or more, respectively. Incidentally, those marked with * were measured at 2 weeks' time and the others were measured at 4 weeks' time.

[4] = Moisture absorption/desorption test; type: physicochemical; settings: for Weight change ratio, Adsorption / Weight change ratio, Desorption: 25° C.
Description: Moisture absorption/desorption test was carried out with respect to Compound A, monofumarate of Compound A, hemifumarate of Compound A, hemitartrate of Compound A and monophosphate of Compound A, to research the presence or absence of the characteristic of channel hydrate.
In the moisture absorption/desorption test, measurements were carried out according to the following conditions.
A dedicated quartz holder was filled with about from 5 to 10 mg of sample, and a weight of the sample at each humidity was measured and recorded in a continuous manner under the following conditions. Handling of the devices including data processing was based on the method and the process indicated in each device.
Device: VTI SA+ (manufactured by TA Instruments Inc.)
Drying temperature: 60° C.
Temperature rising speed: 1° C./min.
Equilibrium in drying: It is confirmed that no reduction of 0.01 wt % occurs in 5 minutes, in a range not exceeding 300 minutes.
Temperature for measurement: 25° C.
Equilibrium in humidification: It is confirmed that no increase of 0.01 wt % occurs in 5 minutes, in a range not exceeding 120 minutes.
Relative humidity program: Raised by 5% RH from 5% RH to 95% RH, and lowered by 5% RH from 95% RH to 5% RH.

[5] = Solid stability test (severe test), 60° C.; type: physicochemical
Description: Solid stability was measured under the following conditions, with respect to monofumarate of Compound A, hemitartrate of Compound A and monophosphate of Compound A which were obtained in the Examples and the Reference Examples, when they were stored for 2 weeks or 4 weeks at 60° C.
Storage condition: 60° C. (Sealed)
Point of measurement: 2 weeks and 4 weeks
as §1, §2, §3
In the Table, A and B refer to percentages of the total mass of analogous substance of less than 0.1%, and 0.1% or more and less than 0.5%, respectively. Incidentally, the value marked with * was measured at 2 weeks and the others were measured at 4 weeks.

[6] = 50 mg/kg in terms of Compound A, 0.5% HPMC suspension, plasma Compound A

## C=CC(=O)N1CCC[C@@H](n2nc(C(=O)Nc3nc4ccccc4o3)c3c(N)ncnc32)C1.O=C(O)/C=C/C(=O)O [monofumarate of Compound A, (R)-1-(1-acryloylpiperidin-3-yl)-4-amino-N-(benzo[d]oxazol-2-yl)-1H-pyrazolo[3,4-d]pyrimidine-3-carboxamide.monofumarate]
[1]; 50 mg/kg
  Cmax relative to that of Compound A: about two fold
[1]; [6]
  AUC0-6 hr: 7.33 µM·h
  Cmax: 7.63 µM
  Tmax: 15 min
[2]; in vitro kinase
  BTK inhibition selectivity against EGFR kinase relative to Comparative compound 1: about 13 times
[2]; selectivity ratio
  EGFR inhibitory activity IC50 value (nM)/BTK inhibitory activity IC50 value (nM): 16.90
A431 cells / TMD8 cells; A431/TMD8
  BTK inhibition selectivity in the cell proliferation inhibition ratio relative to Comparative compound 1: about 65 times
A431 cells / TMD8 cells; GI50 based, 3 days culture, CELLTITER GLO
  A431 cell proliferation inhibition ratio/TMD8 cell proliferation inhibition ratio: 7643
[3]; Opened
  total mass of analogous substance: A (less than 0.1%)
[3]; Sealed
  total mass of analogous substance: A (less than 0.1%)
[3]; compared to hemitartrate or monophosphate
  solid stability (in words): excellent solid stabilities
[4]; relative humidity 5%
  Weight change ratio, Adsorption: 0.01%
  Weight change ratio, Desorption: 0.05%
[4]; relative humidity 20%
  Weight change ratio, Adsorption: 0.14%
  Weight change ratio, Desorption: 0.17%
[4]; relative humidity 40%
  Weight change ratio, Adsorption: 0.30%
  Weight change ratio, Desorption: 0.33%
[4]; relative humidity 60%
  Weight change ratio, Adsorption: 0.37%
  Weight change ratio, Desorption: 0.41%
[4]; relative humidity 80%
  Weight change ratio, Adsorption: 0.45%
  Weight change ratio, Desorption: 0.49%
[4]; relative humidity 95%
  Weight change ratio, Adsorption: 0.60%
  Weight change ratio, Desorption: 0.60%
[4]; relative humidity of 95%
  mass change (increase): less than 1%
[5]; 60° C. (Sealed), 4 weeks
  total mass of analogous substance: A (less than 0.1%)
[5]; 60° C., compared to hemitartrate or monophosphate
  solid stability (in words): excellent solid stabilities
